From patent US20230322715A1, “BROAD SPECTRUM ANTI-CANCER COMPOUNDS” (The Regents of the University of California, priority 2019, published 2023)
Entries after “also recorded” stand apart in the source; their conditions may differ. Like-named read-outs stand apart in the source and are kept apart here.

Legend:
B16 cells = assay: B16 cell proliferation assay with ALKBH5 inhibitor; format: cell-based, mouse; settings: 10, 30 and 50 μM ALKBH5 inhibitor vs DMSO
Experimental: B16 cells were plated at a density of 2000/well in 96-well plates in triplicate and incubated for 0, 2, 4, or 6 days before cell numbers were determined by manual counting or by using a CellTiter AQueous One Solution Cell Proliferation Assay kit (Promega).
Our results thus far indicate that loss f-m6A demethylase Alkbh5, in B16 melanoma cells, potentiates the efficacy of GVAX/anti-PD-1 therapy. To identify clinically relevant pharmacological inhibitors of Alkbh5, we have identified a specific inhibitor of ALKBH5, named ALK-04, by in silico screening of compounds using the X-ray crystal structure of ALKBH5 (PDB ID code 4NRO) and by performing structure-activity relationship studies on a library of synthesized compounds. […] Next, we compared tumor growth of control and inhibitor-treated mice during immunotherapy.

B16 melanoma tumors = assay: B16 melanoma mouse model, GVAX/anti-PD-1 immunotherapy with ALKBH5 inhibitor; format: in vivo; settings: combined with PD-1 Ab and GVAX, vs control
Experimental: Animal studies and procedures were approved by the UCSD Institutional Animal Care and use Committee. Female C57BL/6J wild-type mice were obtained from The Jackson Laboratory and housed in the UCSD specific-pathogen free facility. 86.129S2-Tcratm1Mcrn/J (Tcra+) mice, which are CDC and CDB· T cell deficient, were obtained from The Jackson Laboratory and bred on-site. For the standard protocol, mice (aged 9-12 weeks at use) were injected subcutaneously (s.c.) with 5×10^5 B16 cells (NTC control, Fto-KO, or Alkbh5-KO, generated as described below) into the left flank on day 0, and then injected with 1 OE irradiated (100 GY) BIG-GM CSF cells (GVAX) into the opposite flank on days 1 and 4 to elicit an anti-tumor immune response. Mice were then injected intraperitoneally (i p.) with 10 mg/kg (−200 pgimouse) of rat monoclonal anti-mouse RD-I Ab (Bio X Cell, clone 29F. IA 12) on the days as indicated on the figures. For PD-1 Ab treatment alone, mice were implanted with B16 cells and treated with antibody on day 6, 9 and 12. For the Treg depletion experiments, mice were injected as described above and were additionally injected i.p. vittl rat anti-mouse CD25 Ab (Bio X Cell, clone 7D4) on day 11. Tumors were measured every 3 days beginning on day 7. […]

ALKBH5 [1] = molecular target: T1, ALKBH5 (Homo sapiens (Human), UniProt Q6P6C2); assay: Fluorescence enzymatic inhibition assay (m6A7-Broccoli RNA / DFHBI-1T) against ALKBH5; format: biochemical; settings: for IC50: read-out: Enzymatic IC50 ALKBH5
Experimental: (§1) Inhibitors were added in concentrations ranging from 0.008-40 μM; all inhibitors were dissolved in DMSO and added to a final concentration of 0.2% DMSO. […] After incubation at room temperature for 2 hours, the plates were left at 4° C. overnight (16 hours) to allow DFHBI-1T to bind to A7-Broccoli RNA. […] Sigmoidal dose-response curves were fitted in GraphPad Prism 6. All assays were performed in triplicate, with additional repetitions added as necessary.

ALKBH5 [2] = molecular target: T1, ALKBH5; assay: Michaelis-Menten kinetics against ALKBH5; format: biochemical
FTO [3] = molecular target: T2, FTO (Homo sapiens (Human), UniProt Q9C0B1); assay: Fluorescence enzymatic inhibition assay (m6A7-Broccoli RNA / DFHBI-1T) against FTO; format: biochemical; settings: for IC50: read-out: Enzymatic IC50 FTO; for selectivity between FTO and ALKBH5: comparison of enzymatic IC50 values
Experimental: In order to determine their efficacy as FTO inhibitors, the compounds were screened by a fluorescence enzymatic inhibition assay developed previously by the Jaffrey lab.^44 Briefly, a nonfluorescent methylated RNA substrate termed “m6A7-Broccoli” is incubated with FTO in the presence of 2-oxoglutarate (300 μM), (NH4)2Fe(SO4)2·6H2O (300 μM), and L-ascorbate (2 mM) for 2 hours at room temperature in reaction buffer (50 mM NaHEPES, pH 6).
as §1

[4] = elogD / log D determination; settings: Table 700 compounds
[5] = system: TS576 glioblastoma stem cells; assay: Neurosphere (tumorosphere) formation assay, TS576; format: cell-based, human; settings: 2 days
Experimental: To understand the effects of our FTO inhibitors on the self-renewal properties of GSCs, tumorospheres cultured from the patient-derived GSC line TS576 were treated with 30 μM of FTO-04, FTO-10, FTO-11, or FTO-12 (FIG. 4-3AB; cell line gifted from the Furnari lab)^0.45, 46 The GSCs were cultured in sphere-forming assays for 24 hours, then treated with either inhibitors or DMSO control for 2 days. The size of the tumorospheres was calculated using ImageJ.
Early passaged GSCs were used to understand the efficacy of ALK-04 on the self-renewal capacity of GSCs by tumorsphere-formation assay as described earlier^10, 11. In brief, GSCs were seeded at 4×10^4 cells in 24 well plate and cultured for 3 days followed by treatment with ALK-04 inhibitors at 20 μM daily for 3 days. After 3 days of treatment the images of the tumorospheres were imaged with phase contrast microscope and size was measured with Image J, to understand the effects of drugs on the self-renewal of GSCs on sphere formation. This process was also repeated for healthy neural stem cells (hNSCs) treated daily with 20 μM ALK-04 for three days to assess the therapeutic ratio.

ALKBH5 [6] = molecular target: T1, ALKBH5; settings: reported from Huang et. al 2019; read-out: Enzymatic IC50 ALKBH5; cited from earlier work
MONOMAC6 and NB4 cells = settings: Huang et. al; cited from earlier work
[7] = system: GBM-6 glioblastoma stem cells; assay: Neurosphere (tumorosphere) formation assay, GBM-6; format: cell-based, human; settings: GBM-6, 20 μM, 2 days
[8] = system: m6A mRNA levels in TS576 cells; assay: m6A dot blot assay on poly(A)+ mRNA; format: cell-based, human; settings: TS576 poly(A)+ mRNA, 2, 10, 50 ng, vs DMSO or shControl
Experimental: Next, we sought to determine if FTO-04 was able to alter m6A levels in purified mRNA from GSCs by m6A dot blot assay. TS576 cells were treated with 2, 10, and 50 ng shControl or shFTO to establish the relative change in m6A mRNA levels due to FTO knockdown. […] TS576 cells were then treated with 2, 10, and 50 ng of either DMSO or FTO-04 (FIG. 4-33B).
Polyadenylated mRNA were isolated from TS576 cells treated with either DMSO, FTO-04 (30 μM), and control (shControl) or FTO lentivirus (shFTO) knockdown samples by using Magnetic mRNA Isolation Kit (New England Biolabs, S1550S). Isolated mRNA was quantified, serially diluted and denatured at 95° C. for 3 min, then chilled on ice to prevent reformation of secondary structure of mRNA. Denatured mRNA samples were spotted on an Amersham Hybond-N^+ membrane (GE Healthcare, RPN3050B) and cross-linked to the membrane with UV radiation. After crosslinking the membrane was washed with phosphate buffer saline with 0.1% tween-20 (PBST) and blocked in 5% of non-fat milk in PBST buffer, and then incubated with anti-m^6 A antibody (1:1000; abcam) overnight at 4° C. The membrane was then washed as before and incubated in HRP-conjugated secondary antibodies for 1 h at room temperature. The membrane was then developed with Thermo ECL SuperSignal West Femto Maximum Sensitivity Substrate (Thermo Fisher Scientific).

[9] = system: human neural stem cells (hNSC); assay: Neurosphere formation assay, healthy neural stem cells; format: cell-based; settings: 20 μM, 2 days
FTO [10] = molecular target: T2, FTO; assay: Steady-state (Michaelis-Menten) inhibition kinetics of FTO; format: biochemical; settings: velocity and double reciprocal plots, 0-40 μM inhibitor, substrate 0-10 μM
FTO [11] = molecular target: T2, FTO; assay: ELISA-based FTO inhibition assay (orthogonal control); format: biochemical; settings: biotinylated m6A-RNA, 0-40 μM inhibitor; read-out: IC50 against FTO by ELISA assay
Experimental: The reaction mixture was then incubated with neutravidin coated 96-well plates overnight at 4° C., washed and blocked, incubated with m^6 A-specific antibody for 1 hour at room temperature, washed and blocked, and incubated with horseradish peroxidase-conjugated secondary antibody for 1 hour at room temperature. After extensive washing, the wells were treated with 3,3′,5,5′-tetramethylbenzidine (TMB) for 30 minutes at room temperature and the absorbance was measured at 390 nm. Absorbance was normalized to control wells for each concentration of inhibitor without cofactor 2-oxoglutarate to control for non-specific antibody binding, and the data were fit to a sigmoidal dose-response curve in GraphPad Prism 6.
The reaction mixture was then incubated with neutravidin coated 96-well plates (Pierce) overnight at 4° C., washed and blocked, incubated with m6A -specific primary antibody (Abcam ab151230, 1:400 dilution) for 1 hour at room temperature, washed and blocked (phosphate buffer saline with 0.1% tween-20 (PBST); blocked in 5% of non-fat milk in PBST buffer), and incubated with horseradish peroxidase-conjugated secondary antibody (Sigma-Aldrich, A6154, 1:5000 dilution) for 1 hour at room temperature. […]

[12] = system: GBM-GSC-23 glioblastoma stem cells; assay: Neurosphere (tumorosphere) formation assay, GBM-GSC-23; format: cell-based, human; settings: GSC-23, 20 μM, 2 days
[13] = m6A7-Broccoli fluorescence assay, 0.250 μM ALKBH5
[14] = m6A7-Broccoli fluorescence assay, 0.250 μM FTO, inhibitor up to 40 μM, triplicate
[15] = TS576, 30 μM inhibitor, vs vehicle control

T2 sequence (Q9C0B1 whole entry): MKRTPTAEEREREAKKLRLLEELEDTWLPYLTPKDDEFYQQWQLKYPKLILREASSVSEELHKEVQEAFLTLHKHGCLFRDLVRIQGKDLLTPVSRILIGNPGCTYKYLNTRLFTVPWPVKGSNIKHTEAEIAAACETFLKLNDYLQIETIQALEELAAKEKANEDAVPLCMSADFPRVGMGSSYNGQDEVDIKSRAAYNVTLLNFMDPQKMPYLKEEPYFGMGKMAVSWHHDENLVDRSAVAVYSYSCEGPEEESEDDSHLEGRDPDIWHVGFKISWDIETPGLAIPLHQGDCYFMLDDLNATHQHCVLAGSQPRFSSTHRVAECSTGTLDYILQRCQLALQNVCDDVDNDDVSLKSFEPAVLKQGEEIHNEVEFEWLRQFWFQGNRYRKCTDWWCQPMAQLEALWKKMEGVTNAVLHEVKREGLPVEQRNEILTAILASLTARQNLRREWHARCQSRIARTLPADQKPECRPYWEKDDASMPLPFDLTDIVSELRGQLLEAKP
T1 sequence (Q6P6C2 whole entry): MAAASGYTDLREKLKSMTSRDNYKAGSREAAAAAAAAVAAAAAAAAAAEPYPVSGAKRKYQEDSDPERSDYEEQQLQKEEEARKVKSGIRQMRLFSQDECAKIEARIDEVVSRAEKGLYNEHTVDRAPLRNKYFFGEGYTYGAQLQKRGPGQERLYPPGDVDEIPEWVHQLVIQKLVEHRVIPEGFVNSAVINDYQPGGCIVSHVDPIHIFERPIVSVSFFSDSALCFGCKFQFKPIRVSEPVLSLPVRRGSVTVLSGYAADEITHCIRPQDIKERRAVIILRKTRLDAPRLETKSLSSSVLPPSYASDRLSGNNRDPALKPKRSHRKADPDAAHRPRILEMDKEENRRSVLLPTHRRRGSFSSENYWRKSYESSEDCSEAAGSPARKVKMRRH

CC(C)(C)OC(=O)N1CSC[C@@H]1CN [ALK-04]
B16 cell proliferation (B16 cells): not significantly affected | B16 tumor growth during immunotherapy (B16 melanoma tumors): significantly reduced tumor growth | IC50 (ALKBH5 [1]; Table 700 compounds): 0.9 ± 0.7 µM | mechanism of inhibition of ALKBH5 (ALKBH5 [2]): competitive inhibitor | IC50 (FTO [3]; Table 700 compounds): > 40 µM | elogD [4]: 0.29

Nc1ncc(-c2ccc3cc(O)ccc3c2)cn1 [FTO-10, 6-(2-aminopyrimidin-5-yl)naphthalen-2-ol]
IC50 (ALKBH5 [1]; [13]): 36.1 µM | selectivity between FTO and ALKBH5 (FTO [3]): equivalent inhibitors towards both demethylases | IC50 (FTO [3]; [14]): 48.1 µM | melting point: 230 °C | size of tumorospheres [5, 15]: significant reduction in size of the tumorospheres

Cc1noc(C)c1-c1cc(Cl)c(Nc2ccccc2C(=O)O)c(Cl)c1 [FB23]
IC50 (ALKBH5 [6]): > 40 µM

Cc1noc(C)c1-c1cc(Cl)c(Nc2ccccc2C(=O)NO)c(Cl)c1 [FB23-2]
cellular concentration relative to FB23 (fold) (MONOMAC6 and NB4 cells): 3-10 | IC50 (ALKBH5 [6]): > 40 µM

COc1ccc2cc(-c3cnc(N)nc3)ccc2c1 [FTO-12, 5-(6-methoxynaphthalen-2-yl)pyrimidin-2-amine]
inhibition of ALKBH5 at the highest concentration measured (ALKBH5 [1]; highest concentration measured): no measurable inhibition | IC50 (ALKBH5 [1]; [13]): > 40 µM | selectivity between FTO and ALKBH5 (FTO [3]): five-fold or higher | IC50 (FTO [3]; [14]): 18.3 ± 1.7 µM | melting point: 230 °C | size of tumorospheres [5, 15]: significant reduction in size of the tumorospheres

COc1ncc(-c2ccc3nc(C)ccc3c2)cn1 [FTO-11, 6-(2-methoxypyrimidin-5-yl)-2-methylquinoline]
IC50 (ALKBH5 [1]; [13]): 19.5 µM | selectivity between FTO and ALKBH5 (FTO [3]): equivalent inhibitors towards both demethylases | IC50 (FTO [3]; [14]): 11.3 µM | melting point: 230 °C | size of tumorospheres [5, 15]: significant reduction in size of the tumorospheres

COc1ncc(-c2ccc3nc(N)sc3c2)cn1 [FTO-04]
size of tumorospheres [7]: significantly decrease the size of tumorospheres | m6A mRNA levels (dot blot) [8]: increase m6A mRNA levels significantly; also recorded: increases m6A mRNA levels | neurosphere size / formation [9]: without impairing hNSC neurosphere growth; also recorded: no alteration in neurosphere size; also recorded: without significantly altering hNSC neurosphere formation | potency against FTO relative to MA (fold) (FTO [3]; IC50 compared with MA (12.5)): approximately 4 | mechanism of inhibition of FTO (FTO [10]): competitive inhibitor; also recorded: competitive mechanism of inhibition | size of tumorospheres ([5]; TS576, 20 μM): significantly decrease the size of tumorospheres | size of tumorospheres [5, 15]: significant reduction in size of the tumorospheres | IC50 (FTO [11]): 2.79 ± 1.3 µM | size of tumorospheres [12]: significantly decrease the size of tumorospheres
